Results as given in ChEMBL document CHEMBL1201862, “PubChem BioAssay data set” (2004).
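Results reflect a 48-hour exposure of cells in 96-well plates to compound at five concentrations. Here, GI50 denotes the concentration required for 50% inhibition of growth.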 Activity calls are given as the source filed them. Rule as the data show it: active = GI50 up to about 1.1 µM and inactive = higher.

How the values were obtained:
Assay in all cases: NCI tumour cell line growth inhibition, 48 h
OVCAR-3 = test system: OVCAR-3
MDA-MB-231 = test system: MDA-MB-231
SK-MEL-2 = test system: SK-MEL-2
A549 = test system: A549
LOX IMVI = test system: LOX IMVI
SR = test system: SR
SF-539 = test system: SF-539
UACC-257 = test system: UACC-257
U-251 = test system: U-251
DU-145 = test system: DU-145
MDA-MB-435 = test system: MDA-MB-435
RPMI-8226 = test system: RPMI-8226
NCI-H460 = test system: NCI-H460
TK-10 = test system: TK-10
SF-295 = test system: SF-295
SK-MEL-5 = test system: SK-MEL-5
HOP-62 = test system: HOP-62
RXF 393 = test system: RXF 393
OVCAR-5 = test system: OVCAR-5
T47D = test system: T47D

| Structure (SMILES) | GI50 (OVCAR-3) | GI50 (MDA-MB-231) | GI50 (SK-MEL-2) | GI50 (A549) | GI50 (LOX IMVI) | GI50 (SR) | GI50 (SF-539) | GI50 (UACC-257) | GI50 (U-251) | GI50 (DU-145) | GI50 (MDA-MB-435) | GI50 (RPMI-8226) | GI50 (NCI-H460) | GI50 (TK-10) | GI50 (SF-295) | GI50 (SK-MEL-5) | GI50 (HOP-62) | GI50 (RXF 393) | GI50 (OVCAR-5) | GI50 (T47D) |
| --- | --- | --- | --- | --- | --- | --- | --- | --- | --- | --- | --- | --- | --- | --- | --- | --- | --- | --- | --- | --- |
| FC(F)(F)c1nc2nc(Cl)c(Cl)nc2n1CCCN1CCOCC1 | 64.3 µM (inactive) | 78.2 µM (inactive) | 37.9 µM (inactive) | > 100 µM (inactive) | 30.4 µM (inactive) | 0.489 µM (active) | 72.4 µM (inactive) | 24 µM (inactive) | 65.9 µM (inactive) | 24.9 µM (inactive) | 44.9 µM (inactive) | 23.4 µM (inactive) | 52 µM (inactive) | > 100 µM (inactive) | > 100 µM (inactive) | 61.5 µM (inactive) | > 100 µM (inactive) | 25.4 µM (inactive) | > 100 µM (inactive) | 47 µM (inactive) |
| CC1CCN(CC(=O)N2c3ccccc3Sc3cc4ccccc4cc32)CC1 | > 100 µM (inactive) | > 100 µM (inactive) | > 100 µM (inactive) | > 100 µM (inactive) | > 100 µM (inactive) | 54.6 µM (inactive) | > 100 µM (inactive) | > 100 µM (inactive) | > 100 µM (inactive) | > 100 µM (inactive) | > 100 µM (inactive) | > 100 µM (inactive) | 37.5 µM (inactive) | > 100 µM (inactive) | > 100 µM (inactive) | > 100 µM (inactive) | > 100 µM (inactive) | > 100 µM (inactive) | > 100 µM (inactive) | > 100 µM (inactive) |
| CC(=O)c1ccc2c(c1)CC1(C2)Cc2cc3c(cc2C1)C(=O)CC3 (stereo not given) | 0.493 µM (active) | 2.51 µM (inactive) | 0.356 µM (active) | 0.792 µM (active) | 6.37 µM (inactive) | 0.322 µM (active) | 0.733 µM (active) | 11.4 µM (inactive) | 1.8 µM (inactive) | 1.4 µM (inactive) | 0.242 µM (active) | 0.345 µM (active) | 0.453 µM (active) | 9.35 µM (inactive) | 0.594 µM (active) | 0.608 µM (active) | 2.67 µM (inactive) | 2.28 µM (inactive) | 6.75 µM (inactive) | 3.33 µM (inactive) |
| Cn1c2ccccc2c(=NNc2ccc(S(N)(=O)=O)cc2)c2ccccc21 | 19.5 µM (inactive) | 9.23 µM (inactive) | 10.5 µM (inactive) | 11.7 µM (inactive) | 9.29 µM (inactive) | 8.81 µM (inactive) | 22.5 µM (inactive) | 17.1 µM (inactive) | 19 µM (inactive) | 21.6 µM (inactive) | 16.2 µM (inactive) | 9.35 µM (inactive) | 9.18 µM (inactive) | 15 µM (inactive) | 13.6 µM (inactive) | 8.24 µM (inactive) | 15.3 µM (inactive) | 16.2 µM (inactive) | 24.4 µM (inactive) | 5.45 µM (inactive) |
| CNC(=S)N/N=C/c1ccc([N+](=O)[O-])s1 | 2.23 µM (inactive) | > 10 µM (inactive) | > 10 µM (inactive) | 7.38 µM (inactive) | > 10 µM (inactive) | 4.81 µM (inactive) | > 10 µM (inactive) | > 10 µM (inactive) | > 10 µM (inactive) | > 10 µM (inactive) | > 10 µM (inactive) | > 10 µM (inactive) | 6.67 µM (inactive) | > 10 µM (inactive) | > 10 µM (inactive) | > 10 µM (inactive) | > 10 µM (inactive) | > 10 µM (inactive) | > 10 µM (inactive) | > 10 µM (inactive) |
| CN(C)CCCN1c2ccccc2Sc2cnccc21 | 34 µM (inactive) | 42.1 µM (inactive) | 28.4 µM (inactive) | > 100 µM (inactive) | 65.2 µM (inactive) | 34.2 µM (inactive) | 54.6 µM (inactive) | 19.7 µM (inactive) | > 100 µM (inactive) | > 100 µM (inactive) | 69.7 µM (inactive) | 79.1 µM (inactive) | 32.1 µM (inactive) | 42.4 µM (inactive) | 35.1 µM (inactive) | 79.8 µM (inactive) | 41.6 µM (inactive) | 83 µM (inactive) | > 100 µM (inactive) | > 100 µM (inactive) |
| CCOC(=O)/C(C(=O)c1ccc[nH]1)=C1/CCCN1C | > 100 µM (inactive) | > 100 µM (inactive) | > 100 µM (inactive) | > 100 µM (inactive) | > 100 µM (inactive) | > 100 µM (inactive) | > 100 µM (inactive) | > 100 µM (inactive) | > 100 µM (inactive) | > 100 µM (inactive) | > 100 µM (inactive) | > 100 µM (inactive) | > 100 µM (inactive) | > 100 µM (inactive) | > 100 µM (inactive) | > 100 µM (inactive) | > 100 µM (inactive) | > 100 µM (inactive) | > 100 µM (inactive) | > 100 µM (inactive) |
| CCCCCCCCCC[C@@H](O)[C@H]1CC[C@H]([C@H]2CC[C@H]([C@H](O)CCCCCCCCCC[C@@H]3CC(CC(C)=O)C(=O)O3)O2)O1 (stereo not given in full) | 15.1 µM (inactive) | > 50 µM (inactive) | > 40.9 µM (inactive) | 9.93 µM (inactive) | 1.12 µM (inactive) | 0.562 µM (active) | 17.3 µM (inactive) | 0.914 µM (active) | > 50 µM (inactive) | > 50 µM (inactive) | > 39.1 µM (inactive) | 0.231 µM (active) | 0.254 µM (active) | > 39.4 µM (inactive) | 1.94 µM (inactive) | 0.0929 µM (active) | 46.5 µM (inactive) | 20.7 µM (inactive) | > 50 µM (inactive) | > 17.2 µM (inactive) |
| Cn1c2c(c3ccccc31)CCN1C(=O)CN(C(=O)C3CCCCC3)CC21 (stereo not given) | > 100 µM (inactive) | > 100 µM (inactive) | > 100 µM (inactive) | > 100 µM (inactive) | > 100 µM (inactive) | > 100 µM (inactive) | > 100 µM (inactive) | > 100 µM (inactive) | > 100 µM (inactive) | > 100 µM (inactive) | > 100 µM (inactive) | > 100 µM (inactive) | > 100 µM (inactive) | > 100 µM (inactive) | > 100 µM (inactive) | > 100 µM (inactive) | > 100 µM (inactive) | > 100 µM (inactive) | > 100 µM (inactive) | > 100 µM (inactive) |
| COc1cc2oc3cc(=O)cc4oc(-c5ccccc5)cc(c2c2c1CCC(c1ccccc1)O2)c43 (stereo not given) | 26 µM (inactive) | 22.3 µM (inactive) | 33 µM (inactive) | 72.8 µM (inactive) | 31.9 µM (inactive) | 11.1 µM (inactive) | 24.5 µM (inactive) | 26.7 µM (inactive) | 43.1 µM (inactive) | 24.3 µM (inactive) | 22.7 µM (inactive) | 3.34 µM (inactive) | 27.5 µM (inactive) | 26.6 µM (inactive) | 19.1 µM (inactive) | 20.4 µM (inactive) | 41 µM (inactive) | 54.7 µM (inactive) | 56 µM (inactive) | 17.7 µM (inactive) |
| C=C1C(=O)O[C@@H]2CC(CO)=C([C@@H](C)CCCO)[C@@H](OC(=O)/C(C)=C\C)[C@H]12 | 7.64 µM (inactive) | 24.9 µM (inactive) | 20.9 µM (inactive) | 21.6 µM (inactive) | 8.39 µM (inactive) | 1.88 µM (inactive) | 22.2 µM (inactive) | 15.6 µM (inactive) | 15 µM (inactive) | 8.71 µM (inactive) | 15.8 µM (inactive) | 5.05 µM (inactive) | 9.98 µM (inactive) | 18.8 µM (inactive) | 16.9 µM (inactive) | 13.9 µM (inactive) | 34.9 µM (inactive) | 11.9 µM (inactive) | 28.5 µM (inactive) | 10.4 µM (inactive) |
| CCC(C#N)NC(=O)NC(C#N)CC (stereo not given) | > 100 µM (inactive) | > 100 µM (inactive) | > 100 µM (inactive) | 77.3 µM (inactive) | > 100 µM (inactive) | > 100 µM (inactive) | > 100 µM (inactive) | > 100 µM (inactive) | > 100 µM (inactive) | > 100 µM (inactive) | > 100 µM (inactive) | > 100 µM (inactive) | > 100 µM (inactive) | > 100 µM (inactive) | > 100 µM (inactive) | > 100 µM (inactive) | > 100 µM (inactive) | > 100 µM (inactive) | > 100 µM (inactive) | > 100 µM (inactive) |
| Cc1cc(/N=C/c2ccc(C#N)cc2)n(-c2ccccc2)n1 | 38.9 µM (inactive) | > 100 µM (inactive) | > 100 µM (inactive) | 64.9 µM (inactive) | 63.4 µM (inactive) | 35.5 µM (inactive) | 99.3 µM (inactive) | > 100 µM (inactive) | 71.6 µM (inactive) | > 100 µM (inactive) | 37 µM (inactive) | 26.2 µM (inactive) | > 100 µM (inactive) | > 100 µM (inactive) | 81.7 µM (inactive) | 36 µM (inactive) | 68.9 µM (inactive) | > 100 µM (inactive) | > 100 µM (inactive) | 48.9 µM (inactive) |
| Nc1[nH]c(Nc2ccc(Cl)c(Cl)c2)nc2ncnc1-2 | 11.7 µM (inactive) | 14 µM (inactive) | 17.5 µM (inactive) | 13.9 µM (inactive) | 14.8 µM (inactive) | 11 µM (inactive) | 12.4 µM (inactive) | 17.5 µM (inactive) | 15.2 µM (inactive) | 7.41 µM (inactive) | 16.6 µM (inactive) | 14.5 µM (inactive) | 15.5 µM (inactive) | 13.2 µM (inactive) | 17.5 µM (inactive) | 14.6 µM (inactive) | 12.9 µM (inactive) | 4.78 µM (inactive) | 25.5 µM (inactive) | 8.55 µM (inactive) |
